Results from ChEMBL document CHEMBL1201862, “PubChem BioAssay data set” (2004).
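Values below derive from 48-hour exposures of cells grown in 96-well plates, with endpoints linearly interpolated between the two concentrations bracketing the appropriate inhibition level. At the GI50, growth is halved.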 Active and inactive are the calls of the source. Cut-off read from the data, not from the text of the source: active = GI50 up to about 1.1 µM and inactive = higher.

Legend:
Assay in all cases: NCI-60 cell line screen, 48 h
MCF7 = system: MCF7
OVCAR-5 = system: OVCAR-5
BT-549 = system: BT-549
NCI-H522 = system: NCI-H522
SF-268 = system: SF-268
SK-MEL-2 = system: SK-MEL-2
HOP-62 = system: HOP-62
OVCAR-4 = system: OVCAR-4
OVCAR-3 = system: OVCAR-3
UACC-62 = system: UACC-62
T47D = system: T47D
MDA-N = system: MDA-N
PC-3 = system: PC-3
CAKI-1 = system: CAKI-1
NCI-H460 = system: NCI-H460
SK-MEL-5 = system: SK-MEL-5
RPMI-8226 = system: RPMI-8226
SW-620 = system: SW-620
LOX IMVI = system: LOX IMVI
MDA-MB-231 = system: MDA-MB-231
SN12C = system: SN12C
SK-MEL-28 = system: SK-MEL-28
HCC 2998 = system: HCC 2998
RXF 393 = system: RXF 393
SK-OV-3 = system: SK-OV-3
CCRF-CEM = system: CCRF-CEM
U-251 = system: U-251
Malme-3M = system: Malme-3M
UO-31 = system: UO-31
A498 = system: A498
SNB-19 = system: SNB-19
COLO 205 = system: COLO 205
MOLT-4 = system: MOLT-4
A549 = system: A549
SNB-75 = system: SNB-75
NCI-H23 = system: NCI-H23
HCT-15 = system: HCT-15
KM12 = system: KM12
TK-10 = system: TK-10
UACC-257 = system: UACC-257
SF-539 = system: SF-539
DU-145 = system: DU-145
SF-295 = system: SF-295
NCI/ADR-RES = system: NCI/ADR-RES
IGROV-1 = system: IGROV-1
MDA-MB-435 = system: MDA-MB-435
HT-29 = system: HT-29
HL-60 = system: HL-60
K562 = system: K562
ACHN = system: ACHN
HOP-92 = system: HOP-92
SR = system: SR
M14 = system: M14
Hs-578T = system: Hs-578T
786-0 = system: 786-0
HCT-116 = system: HCT-116
OVCAR-8 = system: OVCAR-8
NCI-H226 = system: NCI-H226
EKVX = system: EKVX

SMILES: CC(C)NC(=O)OCc1c(COC(=O)NC(C)C)c(-c2cc[n+](COC(=O)C3CCCCC3)cc2)n2c1CCC2
- GI50 (MCF7): 83.4 µM (inactive)
- GI50 (OVCAR-5): > 100 µM (inactive)
- GI50 (BT-549): > 100 µM (inactive)
- GI50 (NCI-H522): > 100 µM (inactive)
- GI50 (SF-268): 91.2 µM (inactive)
- GI50 (SK-MEL-2): > 100 µM (inactive)
- GI50 (HOP-62): > 100 µM (inactive)
- GI50 (OVCAR-4): > 100 µM (inactive)
- GI50 (OVCAR-3): > 100 µM (inactive)
- GI50 (UACC-62): 99.8 µM (inactive)
- GI50 (T47D): > 100 µM (inactive)
- GI50 (MDA-N): > 100 µM (inactive)
- GI50 (PC-3): > 100 µM (inactive)
- GI50 (CAKI-1): 50 µM (inactive)
- GI50 (NCI-H460): 70 µM (inactive)
- GI50 (SK-MEL-5): > 100 µM (inactive)
- GI50 (RPMI-8226): > 100 µM (inactive)
- GI50 (SW-620): > 100 µM (inactive)
- GI50 (LOX IMVI): > 100 µM (inactive)
- GI50 (MDA-MB-231): > 100 µM (inactive)
- GI50 (SN12C): > 100 µM (inactive)
- GI50 (SK-MEL-28): > 100 µM (inactive)
- GI50 (HCC 2998): > 100 µM (inactive)
- GI50 (RXF 393): > 100 µM (inactive)
- GI50 (SK-OV-3): > 100 µM (inactive)
- GI50 (CCRF-CEM): 44.8 µM (inactive)
- GI50 (U-251): > 100 µM (inactive)
- GI50 (Malme-3M): > 100 µM (inactive)
- GI50 (UO-31): > 100 µM (inactive)
- GI50 (A498): > 100 µM (inactive)
- GI50 (SNB-19): > 100 µM (inactive)
- GI50 (COLO 205): > 100 µM (inactive)
- GI50 (MOLT-4): 40.8 µM (inactive)
- GI50 (A549): > 100 µM (inactive)
- GI50 (SNB-75): 43.4 µM (inactive)
- GI50 (NCI-H23): > 100 µM (inactive)
- GI50 (HCT-15): > 100 µM
- GI50 (KM12): > 100 µM (inactive)
- GI50 (TK-10): > 100 µM (inactive)
- GI50 (UACC-257): > 100 µM (inactive)
- GI50 (SF-539): 21.9 µM (inactive)
- GI50 (DU-145): > 100 µM (inactive)
- GI50 (SF-295): > 100 µM (inactive)
- GI50 (NCI/ADR-RES): > 100 µM (inactive)
- GI50 (IGROV-1): > 100 µM (inactive)
- GI50 (MDA-MB-435): > 100 µM (inactive)
- GI50 (HT-29): > 100 µM (inactive)
- GI50 (HL-60): 32.4 µM (inactive)
- GI50 (K562): > 100 µM (inactive)
- GI50 (ACHN): 44.9 µM (inactive)
- GI50 (HOP-92): > 100 µM (inactive)
- GI50 (SR): 9.25 µM (inactive)
- GI50 (M14): > 100 µM (inactive)
- GI50 (Hs-578T): > 100 µM (inactive)
- GI50 (786-0): > 100 µM (inactive)
- GI50 (HCT-116): > 100 µM (inactive)
- GI50 (OVCAR-8): > 100 µM (inactive)
- GI50 (NCI-H226): > 100 µM (inactive)
- GI50 (EKVX): > 100 µM (inactive)

SMILES: C=CCOc1ccccc1/N=N/C(C#N)=N\Nc1ccccc1OCC=C
- GI50 (MCF7): > 100 µM (inactive)
- GI50 (OVCAR-5): > 100 µM (inactive)
- GI50 (BT-549): > 100 µM (inactive)
- GI50 (NCI-H522): > 100 µM (inactive)
- GI50 (SF-268): > 100 µM (inactive)
- GI50 (SK-MEL-2): > 100 µM (inactive)
- GI50 (HOP-62): > 100 µM (inactive)
- GI50 (OVCAR-4): > 100 µM (inactive)
- GI50 (OVCAR-3): > 100 µM (inactive)
- GI50 (UACC-62): > 100 µM (inactive)
- GI50 (T47D): > 100 µM (inactive)
- GI50 (MDA-N): 27.2 µM (inactive)
- GI50 (PC-3): > 100 µM (inactive)
- GI50 (CAKI-1): > 100 µM (inactive)
- GI50 (NCI-H460): > 100 µM (inactive)
- GI50 (SK-MEL-5): > 100 µM (inactive)
- GI50 (RPMI-8226): > 100 µM (inactive)
- GI50 (SW-620): > 100 µM (inactive)
- GI50 (LOX IMVI): > 100 µM (inactive)
- GI50 (MDA-MB-231): > 100 µM (inactive)
- GI50 (SN12C): > 100 µM (inactive)
- GI50 (SK-MEL-28): > 100 µM (inactive)
- GI50 (HCC 2998): 48.1 µM (inactive)
- GI50 (RXF 393): > 100 µM (inactive)
- GI50 (SK-OV-3): > 100 µM (inactive)
- GI50 (CCRF-CEM): > 100 µM (inactive)
- GI50 (U-251): > 100 µM (inactive)
- GI50 (Malme-3M): > 100 µM (inactive)
- GI50 (UO-31): > 100 µM (inactive)
- GI50 (A498): > 100 µM (inactive)
- GI50 (SNB-19): > 100 µM (inactive)
- GI50 (COLO 205): > 100 µM (inactive)
- GI50 (MOLT-4): > 100 µM (inactive)
- GI50 (A549): > 100 µM (inactive)
- GI50 (SNB-75): > 100 µM (inactive)
- GI50 (NCI-H23): > 100 µM (inactive)
- GI50 (HCT-15): > 100 µM
- GI50 (KM12): > 100 µM (inactive)
- GI50 (TK-10): > 100 µM (inactive)
- GI50 (UACC-257): > 100 µM (inactive)
- GI50 (SF-539): > 100 µM (inactive)
- GI50 (DU-145): > 100 µM (inactive)
- GI50 (SF-295): > 100 µM (inactive)
- GI50 (NCI/ADR-RES): > 100 µM (inactive)
- GI50 (IGROV-1): > 100 µM (inactive)
- GI50 (MDA-MB-435): 41.9 µM (inactive)
- GI50 (HT-29): > 100 µM (inactive)
- GI50 (HL-60): > 100 µM (inactive)
- GI50 (K562): > 100 µM (inactive)
- GI50 (ACHN): > 100 µM (inactive)
- GI50 (HOP-92): 62.1 µM (inactive)
- GI50 (SR): > 100 µM (inactive)
- GI50 (M14): > 100 µM (inactive)
- GI50 (Hs-578T): > 100 µM (inactive)
- GI50 (786-0): > 100 µM (inactive)
- GI50 (HCT-116): > 100 µM (inactive)
- GI50 (OVCAR-8): > 100 µM (inactive)
- GI50 (NCI-H226): > 100 µM (inactive)
- GI50 (EKVX): > 100 µM (inactive)

SMILES: CC(=O)Nc1cc(C(=O)Nc2cc(C(=O)N3CC(CCl)c4c3cc(N)c3ccccc43)nn2C)nn1C (configuration not stated)
- GI50 (MCF7): 0.168 µM (active)
- GI50 (OVCAR-5): 0.31 µM (active)
- GI50 (BT-549): 0.185 µM (active)
- GI50 (NCI-H522): < 0.01 µM (active)
- GI50 (SF-268): < 0.0132 µM (active)
- GI50 (SK-MEL-2): 0.0731 µM (active)
- GI50 (HOP-62): 0.101 µM (active)
- GI50 (OVCAR-4): 0.171 µM (active)
- GI50 (OVCAR-3): 0.23 µM (active)
- GI50 (UACC-62): < 0.0118 µM (active)
- GI50 (T47D): < 0.01 µM (active)
- GI50 (MDA-N): 0.133 µM (active)
- GI50 (PC-3): 0.101 µM (active)
- GI50 (CAKI-1): < 0.0393 µM (active)
- GI50 (NCI-H460): < 0.01 µM (active)
- GI50 (SK-MEL-5): 0.0178 µM (active)
- GI50 (RPMI-8226): 0.188 µM (active)
- GI50 (SW-620): < 0.0383 µM (active)
- GI50 (LOX IMVI): 0.0117 µM (active)
- GI50 (MDA-MB-231): 0.185 µM (active)
- GI50 (SN12C): < 0.01 µM (active)
- GI50 (SK-MEL-28): 0.0782 µM (active)
- GI50 (HCC 2998): 0.115 µM (active)
- GI50 (RXF 393): 0.0115 µM (active)
- GI50 (SK-OV-3): 0.0362 µM (active)
- GI50 (CCRF-CEM): < 0.01 µM (active)
- GI50 (U-251): 0.0194 µM (active)
- GI50 (Malme-3M): 0.115 µM (active)
- GI50 (UO-31): 0.294 µM (active)
- GI50 (A498): < 0.0115 µM (active)
- GI50 (SNB-19): 0.127 µM (active)
- GI50 (COLO 205): 0.112 µM (active)
- GI50 (MOLT-4): < 0.0112 µM (active)
- GI50 (A549): 0.187 µM (active)
- GI50 (SNB-75): 0.0215 µM (active)
- GI50 (NCI-H23): < 0.0104 µM (active)
- GI50 (HCT-15): 0.571 µM
- GI50 (KM12): 0.188 µM (active)
- GI50 (TK-10): 0.251 µM (active)
- GI50 (UACC-257): 0.186 µM (active)
- GI50 (SF-539): 0.0191 µM (active)
- GI50 (DU-145): < 0.01 µM (active)
- GI50 (SF-295): 0.287 µM (active)
- GI50 (NCI/ADR-RES): 0.541 µM (active)
- GI50 (IGROV-1): 0.0405 µM (active)
- GI50 (MDA-MB-435): 0.138 µM (active)
- GI50 (HT-29): 0.216 µM (active)
- GI50 (HL-60): < 0.01 µM (active)
- GI50 (K562): 0.0381 µM (active)
- GI50 (ACHN): < 0.0148 µM (active)
- GI50 (HOP-92): < 0.0218 µM (active)
- GI50 (SR): < 0.01 µM (active)
- GI50 (M14): 0.286 µM (active)
- GI50 (Hs-578T): 0.176 µM (active)
- GI50 (786-0): 0.0893 µM (active)
- GI50 (HCT-116): 0.0187 µM (active)
- GI50 (OVCAR-8): 0.0209 µM (active)
- GI50 (NCI-H226): < 0.0232 µM (active)
- GI50 (EKVX): 0.159 µM (active)
